Measurements from ChEMBL document CHEMBL1129930, “Analogues of methotrexate in rheumatoid arthritis. 2. Effects of 5-deazaaminopterin, 5,10-dideazaaminopterin, and analogues on type II collagen-induced arthritis in mice” (J Med Chem, 1997).

Experiments:
Mus musculus [1] = experiment: Incidence of disease (mouse type II collagen) was scored as the percentage of animals within each experimental group that exhibited joint or limb inflammation on day 30 at intraperitoneal dose of 0.25 mg/kg (deaths observed at 1.5 mg/kg); assay type: functional
Mus musculus [2] = experiment: Tested for antiinflammatory activity on mouse type II collagen arthritis as Paw swelling of all animals in each group on day 37 at intraperitoneal dose of 1 mg/kg; assay type: functional
Mus musculus [3] = experiment: Tested for antiinflammatory activity on mouse type II collagen arthritis as Paw swelling of all animals in each group on day 23 at intraperitoneal dose of 0.25 mg/kg; assay type: functional
Mus musculus [4] = experiment: Incidence of disease (mouse type II collagen) was scored as the percentage of animals within each experimental group that exhibited joint or limb inflammation on day 30 at intraperitoneal dose of 1 mg/kg (deaths observed at 1.5 mg/kg); assay type: functional
Mus musculus [5] = experiment: Tested for antiinflammatory activity on mouse type II collagen arthritis as Paw swelling of all animals in each group on day 44 at intraperitoneal dose of 1 mg/kg; assay type: functional
Mus musculus [6] = experiment: Incidence of disease (mouse type II collagen) was scored as the percentage of animals within each experimental group that exhibited joint or limb inflammation on day 23 at intraperitoneal dose of 0.25 mg/kg (deaths observed at 1.5 mg/kg); assay type: functional
Mus musculus [7] = experiment: Incidence of disease (mouse type II collagen) was scored as the percentage of animals within each experimental group that exhibited joint or limb inflammation on day 37 at intraperitoneal dose of 1 mg/kg (deaths observed at 1.5 mg/kg); assay type: functional
Mus musculus [8] = experiment: Incidence of disease (mouse type II collagen) was scored as the percentage of animals within each experimental group that exhibited joint or limb inflammation on day 37 at intraperitoneal dose of 0.25 mg/kg (deaths observed at 1.5 mg/kg); assay type: functional
Mus musculus [9] = experiment: Incidence of disease (mouse type II collagen) was scored as the percentage of animals within each experimental group that exhibited joint or limb inflammation on day 23 at intraperitoneal dose of 1 mg/kg (deaths observed at 1.5 mg/kg); assay type: functional
Mus musculus [10] = experiment: Incidence of disease (mouse type II collagen) was scored as the percentage of animals within each experimental group that exhibited joint or limb inflammation on day 23 at intraperitoneal dose of 0.50 mg/kg (deaths observed at 1.5 mg/kg); assay type: functional
Mus musculus [11] = experiment: Incidence of disease (mouse type II collagen) was scored as the percentage of animals within each experimental group that exhibited joint or limb inflammation on day 44 at intraperitoneal dose of 0.25 mg/kg (deaths observed at 1.5 mg/kg); assay type: functional
Mus musculus [12] = experiment: Incidence of disease (mouse type II collagen) was scored as the percentage of animals within each experimental group that exhibited joint or limb inflammation on day 37 at intraperitoneal dose of 0.50 mg/kg (deaths observed at 1.5 mg/kg); assay type: functional
Mus musculus [13] = experiment: Tested for antiinflammatory activity on mouse type II collagen arthritis as Paw swelling of all animals in each group on day 23 at intraperitoneal dose of 0.50 mg/kg; assay type: functional; details: dose 0.5 mg/kg
[14] = Concentration required to inhibit the growth of chang liver cells.; assay type: functional; details: Homo sapiens
Mus musculus [15] = experiment: Tested for antiinflammatory activity on mouse type II collagen arthritis as Paw swelling of all animals in each group on day 30 at intraperitoneal dose of 0.25 mg/kg; assay type: functional
L1210 = experiment: Concentration required to inhibit the growth of L1210 cells.; assay type: functional, cell-based; details: Mus musculus
Mus musculus [16] = experiment: Tested for antiinflammatory activity on mouse type II collagen arthritis as Paw swelling of all animals in each group on day 30 at intraperitoneal dose of 0.50 mg/kg; assay type: functional; details: dose 0.5 mg/kg
Mus musculus [17] = experiment: Tested for antiinflammatory activity on mouse type II collagen arthritis as Paw swelling of all animals in each group on day 37 at intraperitoneal dose of 0.25 mg/kg; assay type: functional
Mus musculus [18] = experiment: Tested for antiinflammatory activity on mouse type II collagen arthritis as Paw swelling of all animals in each group on day 30 at intraperitoneal dose of 1 mg/kg; assay type: functional
Mus musculus [19] = experiment: Tested for antiinflammatory activity on mouse type II collagen arthritis as Paw swelling of all animals in each group on day 44 at intraperitoneal dose of 0.50 mg/kg; assay type: functional; details: dose 0.5 mg/kg
Mus musculus [20] = experiment: Tested for antiinflammatory activity on mouse type II collagen arthritis as Paw swelling of all animals in each group on day 37 at intraperitoneal dose of 0.50 mg/kg; assay type: functional; details: dose 0.5 mg/kg
Mus musculus [21] = experiment: Incidence of disease (mouse type II collagen) was scored as the percentage of animals within each experimental group that exhibited joint or limb inflammation on day 44 at intraperitoneal dose of 0.50 mg/kg (deaths observed at 1.5 mg/kg); assay type: functional
Mus musculus [22] = experiment: Incidence of disease (mouse type II collagen) was scored as the percentage of animals within each experimental group that exhibited joint or limb inflammation on day 30 at intraperitoneal dose of 0.50 mg/kg (deaths observed at 1.5 mg/kg); assay type: functional
Mus musculus [23] = experiment: Incidence of disease (mouse type II collagen) was scored as the percentage of animals within each experimental group that exhibited joint or limb inflammation on day 44 at intraperitoneal dose of 1 mg/kg (deaths observed at 1.5 mg/kg); assay type: functional
Mus musculus [24] = experiment: Tested for antiinflammatory activity on mouse type II collagen arthritis as Paw swelling of all animals in each group on day 44 at intraperitoneal dose of 0.25 mg/kg; assay type: functional
Mus musculus [25] = experiment: Tested for antiinflammatory activity on mouse type II collagen arthritis as Paw swelling of all animals in each group on day 23 at intraperitoneal dose of 8 mg/kg; assay type: functional
Mus musculus [26] = experiment: Incidence of disease (mouse type II collagen) was scored as the percentage of animals within each experimental group that exhibited joint or limb inflammation on day 44 at intraperitoneal dose of 8 mg/kg; assay type: functional
Mus musculus [27] = experiment: Tested for antiinflammatory activity on mouse type II collagen arthritis as Paw swelling of all animals in each group on day 30 at intraperitoneal dose of 8 mg/kg; assay type: functional
Mus musculus [28] = experiment: Tested for antiinflammatory activity on mouse type II collagen arthritis as Paw swelling of all animals in each group on day 44 at intraperitoneal dose of 8 mg/kg; assay type: functional
Mus musculus [29] = experiment: Incidence of disease (mouse type II collagen) was scored as the percentage of animals within each experimental group that exhibited joint or limb inflammation on day 23 at intraperitoneal dose of 8 mg/kg; assay type: functional
Mus musculus [30] = experiment: Tested for antiinflammatory activity on mouse type II collagen arthritis as Paw swelling of all animals in each group on day 37 at intraperitoneal dose of 8 mg/kg; assay type: functional
Mus musculus [31] = experiment: Incidence of disease (mouse type II collagen) was scored as the percentage of animals within each experimental group that exhibited joint or limb inflammation on day 30 at intraperitoneal dose of 8 mg/kg; assay type: functional
Mus musculus [32] = experiment: Incidence of disease (mouse type II collagen) was scored as the percentage of animals within each experimental group that exhibited joint or limb inflammation on day 37 at intraperitoneal dose of 8 mg/kg; assay type: functional

In the case of `CCc1c(CNc2ccc(C(=O)NC(CCC(=O)O)C(=O)O)cc2)cnc2nc(N)nc(N)c12` (stereo not drawn), the Animals (Mus musculus [1]) is reported as 0%, the Paw swelling (Mus musculus [2]) is reported as 2.32 mm and the Paw swelling (Mus musculus [3]) is reported as 2.25 mm. The Animals (Mus musculus [4]) was 25%, the Paw swelling (Mus musculus [5]) was 2.29 mm and the Animals (Mus musculus [6]) was 38%. For the same molecule, the Animals (Mus musculus [7]) was 62%, the Animals (Mus musculus [8]) was 50% and the Animals (Mus musculus [9]) was 12%. The Animals (Mus musculus [10]) was 43%, the Animals (Mus musculus [11]) was 62% and the Animals (Mus musculus [12]) was 86%. The Paw swelling (Mus musculus [13]) was 2.31 mm, the IC50 [14] was 126 nM and the Paw swelling (Mus musculus [15]) was 2.22 mm. The IC50 (L1210) was 1.9 nM, the Paw swelling (Mus musculus [16]) was 2.38 mm and the Paw swelling (Mus musculus [17]) was 2.34 mm. For the same molecule, the Paw swelling (Mus musculus [18]) was 2.19 mm, the Paw swelling (Mus musculus [19]) was 2.43 mm and the Paw swelling (Mus musculus [20]) was 2.42 mm. The Animals (Mus musculus [21]) was 71%, the Animals (Mus musculus [22]) was 57% and the Animals (Mus musculus [23]) was 62%. It also gave a Paw swelling (Mus musculus [24]) of 2.33 mm.
Work on `Nc1nc(N)c2cc(CCc3ccc(C(=O)NC(CCC(=O)O)C(=O)O)s3)cnc2n1` (stereo not drawn) yielded a Paw swelling (Mus musculus [25]) of 2.13 mm, an Animals (Mus musculus [26]) of 88% and a Paw swelling (Mus musculus [27]) of 2.19 mm. For the same molecule, the Paw swelling (Mus musculus [28]) was 2.63 mm, the Animals (Mus musculus [29]) was 0% and the Paw swelling (Mus musculus [30]) was 2.6 mm. The Animals (Mus musculus [31]) was 25% and the Animals (Mus musculus [32]) was 88%.
